Reference: patent publication US20140193463A1, “PEPTIDE FOR INHIBITING DIPEPTIDYL-PEPTIDASE IV” (CHINA MEDICAL UNIVERSITY, priority 2013, published 2014)
Residues, ends and D or L forms follow the SMILES beside them.

Experiments:
DPP-IV = DPP-IV (Homo sapiens, UniProt P27487); conditions: previous studies; read-out: IC50 values against DPP-IV; cited from earlier work
[1] = molecular target: T1, Dipeptidyl-peptidase IV (D7052, from porcine kidney) (Sus scrofa, UniProt P22411); test: Determination of DPP-IV-inhibitory activity (Gly-Pro-p-nitroanilide substrate, absorbance 405 nm); type: biochemical; conditions: synthetic peptides and diprotin A, present example (FIG. 4A-4C)
T1 construct: Dipeptidyl-peptidase IV (D7052, from porcine kidney); purchased Sigma-Aldrich D7052; host or cells: porcine kidney (tissue-derived)
Description: Atlantic salmon (Salmo salar) fish skins, processing byproducts recovered from fresh skin-off fillets, were supplied by Albion Fisheries Ltd. (Vancouver, BC, Canada). The fish skins were transferred on ice, vacuum packed, and stored at −25° C. until use. Three food-grade proteolytic enzymes were donated by Neova Technologies Inc. (Abbotsford, BC, Canada). Alcalase 2.4 L FG (from Bacillus licheniformis, 2.4 AU/g) and Flavourzyme 1000 L (from Aspergillus oryzae, 1000 LAPU/g) were products from Novo-zymes North America Inc. (Salem, N.C., […]), whereas bromelain (from pineapple stem, 2000 GDU/g) was manufactured by Ultra Bio-Logics Inc. (Montreal, QC, Canada), Dipeptidyl-peptidase IV (D7052, from porcine kidney), Gly-Prop-nitroanilide hydrochloride, trichloroacetic acid (TCA), L-leucine, and diprotin A were purchased from Sigma-Aldrich (St. Louis, Mo.). Trinitrobenzenesulfonic acid (TNBS) was obtained from Fluka Biochemika Oakville ON, Canada). Other chemicals and reagents used were of analytical grade and commercially available,
DPP-IV activity determination was performed in 96-well microplates. In order to measure an increment in absorbance at 405 nm, Gly-Pro-p-nitroanilide is used as a DPP-IV substrate. […] The absorbance of the resulting solution was measured at 405 nm with a microplate reader (iEMS reader MF; Labsystems, Helsinki, Finland).

T1 sequence (P22411 whole entry): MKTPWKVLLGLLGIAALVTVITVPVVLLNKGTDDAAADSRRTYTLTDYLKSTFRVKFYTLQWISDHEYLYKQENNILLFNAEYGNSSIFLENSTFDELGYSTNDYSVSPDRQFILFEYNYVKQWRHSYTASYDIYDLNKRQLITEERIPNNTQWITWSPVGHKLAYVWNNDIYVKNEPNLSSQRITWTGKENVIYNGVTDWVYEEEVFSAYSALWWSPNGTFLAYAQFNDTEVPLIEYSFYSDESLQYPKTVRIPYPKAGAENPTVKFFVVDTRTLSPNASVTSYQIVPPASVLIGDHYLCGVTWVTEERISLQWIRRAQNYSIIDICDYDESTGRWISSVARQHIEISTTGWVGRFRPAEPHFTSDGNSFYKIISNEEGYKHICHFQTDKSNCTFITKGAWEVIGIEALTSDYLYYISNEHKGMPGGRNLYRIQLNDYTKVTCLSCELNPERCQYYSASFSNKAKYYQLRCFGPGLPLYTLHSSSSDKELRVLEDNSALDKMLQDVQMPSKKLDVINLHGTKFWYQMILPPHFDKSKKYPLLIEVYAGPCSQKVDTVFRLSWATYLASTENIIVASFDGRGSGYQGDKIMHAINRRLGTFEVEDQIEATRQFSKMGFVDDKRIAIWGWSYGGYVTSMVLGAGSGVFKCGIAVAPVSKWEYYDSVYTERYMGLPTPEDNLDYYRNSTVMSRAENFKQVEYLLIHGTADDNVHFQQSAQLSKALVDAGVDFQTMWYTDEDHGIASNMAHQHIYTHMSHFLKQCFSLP
Sequence of DPP-IV (P27487 whole entry, species assumed): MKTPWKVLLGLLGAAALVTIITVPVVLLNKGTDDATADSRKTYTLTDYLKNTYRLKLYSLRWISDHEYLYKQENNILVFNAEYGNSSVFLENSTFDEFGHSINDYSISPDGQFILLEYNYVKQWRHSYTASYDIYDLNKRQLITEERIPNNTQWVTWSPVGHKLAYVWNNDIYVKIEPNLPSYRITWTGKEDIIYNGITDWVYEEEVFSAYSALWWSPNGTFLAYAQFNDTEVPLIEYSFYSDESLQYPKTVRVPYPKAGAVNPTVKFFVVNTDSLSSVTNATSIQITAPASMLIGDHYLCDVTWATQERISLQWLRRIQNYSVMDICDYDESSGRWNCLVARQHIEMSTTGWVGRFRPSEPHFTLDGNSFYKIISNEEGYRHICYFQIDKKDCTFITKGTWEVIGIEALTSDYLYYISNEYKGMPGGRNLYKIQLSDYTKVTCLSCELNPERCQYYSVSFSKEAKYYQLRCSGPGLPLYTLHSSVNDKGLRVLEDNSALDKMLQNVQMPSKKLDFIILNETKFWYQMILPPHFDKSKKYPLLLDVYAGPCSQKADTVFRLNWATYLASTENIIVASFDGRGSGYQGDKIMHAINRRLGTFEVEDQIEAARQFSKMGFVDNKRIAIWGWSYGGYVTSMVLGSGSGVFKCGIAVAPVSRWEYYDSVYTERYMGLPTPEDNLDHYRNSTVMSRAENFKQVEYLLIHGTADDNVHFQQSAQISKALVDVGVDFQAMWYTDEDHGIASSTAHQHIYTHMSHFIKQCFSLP

| Compound | IC50 (DPP-IV) [µM] | IC50 [1] [µM] |
| --- | --- | --- |
| VAGTWY [Val-Ala-Gly-Thr-Trp-Tyr, peptide prepared from β-lactoglobulin] | 174 | – |
| C[C@H](NC(=O)CNC(=O)[C@@H]1CCCN1C(=O)CN)C(=O)O [Gly-Pro-Gly-Ala] (H-GPGA-OH; N-terminus and C-terminus assumed) | – | 41.9 |
| Ile-Pro-Ala [peptide prepared from β-lactoglobulin] | 49 | – |
| C[C@H](NC(=O)[C@@H]1CCCN1C(=O)CN)C(=O)N[C@@H](CCC(=O)O)C(=O)O [Gly-Pro-Ala-Glu] (H-GPAE-OH; N-terminus and C-terminus assumed) | – | 49.6 |
